What follows are compounds tested on ASPC1 (assay: Cytotoxicity against human Aspc-1 cells incubated for 72 hrs by MTT assay). Conditions: ASPC1, 72 h.
Assay type: functional, cell-based
Work on `CC[C@@H]1OC(=O)C[C@@H](C/C=C/C=C(\C)[C@H]2OC(=O)CC/C=C(\C)[C@@H](C)[C@H](O)[C@H](C)[C@@H](OC(N)=O)/C=C\C=C/[C@@H]2C)[C@H]1C` yielded an IC50 of 43 nM.
With `CC[C@@H]1OC(=O)C[C@@](O)(C/C=C/C=C(\C)[C@H]2OC(=O)CC/C=C(\C)[C@@H](C)[C@H](O)[C@H](C)[C@@H](OC(N)=O)/C=C\C=C/[C@@H]2C)[C@H]1C` the IC50 was 46 nM.
For `C=C1[C@@H](C)[C@H](O)[C@H](C)[C@@H](OC(N)=O)/C=C\C=C/[C@H](C)[C@@H](/C(C)=C/C=C/C[C@]2(O)CC(=O)O[C@@H](CC)[C@@H]2C)OC(=O)CC[C@H]1OO`, the IC50 was 3700 nM.
